Measured values from patent publication US20170105949A1, “METHOD FOR IMPROVING FEED EFFICIENCY IN RUMINANTS” (Rivalea (Australia) Pty Ltd, priority 2014, published 2017).
Where a name gives a salt, the structure may show the parent alone.

Tests used:
[1] = Growth performance and feed efficiency of lambs fed pelleted test diets ad libitum (live weight, feed intake by disappearance); type: in vivo, lambs (Border Leister x Merino)
Text: Lambs were used in this study as the model animal representing ruminants. Previous research has shown similar growth performance, feed efficiency and carcass benefits from the inclusion of Ractopamine in cattle and lamb diets. Given this, it is expected that the outcomes from feeding RAC and caffeine in combination to finishing lambs can be translated to expected results in other ruminants such as cattle. The surprising results found in lambs show promise for use of RAC and caffeine in other ruminants, particularly cattle where RAC is an approved animal feed additive.
(§1) A total of 36 male lambs (Border Leister x Merino) were selected at approximately 14 weeks of age and housed in pens of two lambs per pen in a naturally ventilated shed. Lambs were fed a commercial lamb finisher diet for a 14 day acclimatisation period prior to the start of the test period. In addition, all lambs were offered 250 g lucerne hay per day as roughage. At the start of the test period, lambs were individually weighed (average weight 29.8 kg±0.29 kg), ear tagged and the pen randomly allocated to one of three dietary treatments:
(§2) A: Control (no RAC or Caffeine for the entire 56 day test period)
(§3) B: RAC (20 ppm (20 g/t) RAC for the entire 56 day test period)
(§4) C: RAC +Caffeine (20 ppm (20 g/t)) RAC offered from day 0 to day 21, followed by 20 ppm (20 g/t) RAC plus 0.5 kg/t caffeine offered from day 21 to day 56).
(§5) Diets were pelleted and fed ad libitum for the entire test period, while water was also freely available at all times. In addition to the pelleted test feeds, each lamb was offered 200 g lucerne hay per day (floor fed) as an additional source of roughage.
Lambs were shorn prior to entry to the facility to minimise the impact of wool growth on rate of gain measurements and body composition analysis. Individual weights were recorded periodically throughout the test period (Days 0, 21, 35 and 56), while intake of the pelleted test diets was measured by feed disappearance and feed efficiency subsequently calculated.
No attempt was made to measure feed residues of the lucerne hay as the lambs consumed this rapidly and the volume of wastage was considered insignificant.
(§6) Data were subjected to an analysis of variance (ANOVA) for the main effect of dietary treatment. Data for treatments B and C were pooled for the initial 21 day feeding period as both treatment groups were fed the same diet during this time period. The experimental unit for all analyses was the pen of ruminant. All analyses were performed using Genstat 16th Edition (Payne RW, Harding SA, Genstat Committee 2005 Genstat release 8 reference manual, USN International: Oxford UK).

[2] = Body composition of lambs by dual energy x-ray absorptiometry (DXA) scanning; type: in vivo, lambs (Border Leister x Merino)
Text: as §1, §2, §3, §4, §5
Dual energy x-ray absorptiometry (DXA) scanning was undertaken using a Hologic X-Ray Bone Densitometer (Hologic Inc, Waltham, Mass., USA) at day 21 and day 56 of the test period. All lambs were weighed on the day of scanning (prior to anaesthesia). Lambs were sedated using xylazine (administered intramuscularly) and anaesthetised with ketamine intra venously under veterinary direction. Once anaesthetised, lambs were positioned in a ventral recumbency with their hind legs extended and forelegs positioned caudally to accommodate the DXA regional analysis software. The whole body scan mode was used for each animal, with the length of the scan adjusted for the length of the lamb. Following DXA analysis, lambs were monitored by a veterinarian for full recovery from anaesthesia. As the DXA software generates body composition estimates for humans, the raw DXA output from each scan was adjusted for lambs using equations developed by comparisons with actual empty body chemical composition (Hunter 2000).
as §6

[3] = RAC 20 ppm throughout, RAC + Caffeine: 0.5 kg/t caffeine added from day 21, day 0 weight as covariate
[4] = RAC 20 ppm, RAC + Caffeine: 20 ppm RAC plus 0.5 kg/t caffeine from day 21
[5] = day 0 to day 21, 20 ppm RAC in diet, treatments B and C pooled
[6] = entire test period, RAC 20 ppm, RAC + Caffeine: caffeine 0.5 kg/t added day 21-56
[7] = DXA, RAC 20 ppm day 0-56, RAC + Caffeine: caffeine 0.5 kg/t added day 21-56, live weight day 56 as covariate
[8] = DXA, RAC treatment groups pooled, 20 ppm RAC day 0-21
[9] = DXA, both groups 20 ppm RAC day 0-21, live weight day 21 as covariate

## CC(CCc1ccc(O)cc1)NCC(O)c1ccc(O)cc1 (racemic) [RAC, Ractopamine hydrochloride]
[1]; 20 ppm RAC in diet day 0-21, treatments B and C pooled, day 0 weight as covariate
  Live weight day 21: 37.9 kg
[1]; [3]
  Live weight Day 35: 43.6 kg
  Live weight Day 56: 47.3 kg
[1]; [4]
  ADFI Day 21-35: 1.77 kg/day
  ADFI Day 21-56: 1.82 kg/day
  ADFI Day 35-56: 1.77 kg/day
  ADG Day 21-35: 0.380 kg/day
  ADG Day 21-56: 0.266 kg/day
  ADG Day 35-56: 0.177 kg/day
  FCE Day 21-35: 0.214 gain/feed
  FCE Day 21-56: 0.144 gain/feed
  FCE Day 35-56: 0.113 gain/feed
[1]; [5]
  ADFI: 1.40 kg/day
  ADG: 0.388 kg/day
  FCE (gain/feed): 0.28 gain/feed
[1]; [6]
  ADFI Day 0-56: 1.67 kg/day
  ADG Day 0-56: 0.317 kg/day
  FCE Day 0-56: 0.189 gain/feed
[1]; three treatments, both groups 20 ppm RAC day 0-21, day 0 weight as covariate
  Live weight Day 21: 38.2 kg
[2]; [7]
  Adipose tissue (%) Day 56: 22.90%
  Bone mineral content (%) Day 56: 3.01%
  Lean tissue (%) Day 56: 72.64%
[2]; [8]
  adipose tissue at day 21, pooled data: 19.24%
  percentage of lean tissue at day 21, pooled data: 76.83%
[2]; [9]
  Adipose tissue (%) Day 21: 19.18%
  Bone mineral content (%) Day 21: 2.95%
  Lean tissue (%) Day 21: 76.84%
[2]; [4]
  Feed efficiency for lean tissue deposition (kg lean tissue gain: kg feed intake) Day 21-56: 0.073 kg lean tissue gain: kg feed intake
